Data: PMC5393024, “Discovery and characterization of natural tropolones as inhibitors of the antibacterial target CapF from Staphylococcus aureus” (Scientific Reports, 2015)

Test system: CapF
Assay: NADPH consumption assay (absorbance at 340 nm)
Type: biochemical, Staphylococcus aureus
Conditions: 0.02 μM CapF, 1.0 μM CapE, 125 μM UDP-D-GlcNAc, 250 μM NADPH, 37 °C
Procedure: A second assay monitoring the consumption of NADPH corroborates the inhibitory effect of 3-isopropenyl-tropolone (Fig. 2c). This assay is sensitive to the NADPH consumed by the SDR domain during the second reaction catalyzed by CapF (reduction step). […] Nevertheless, additional experiments were required to corroborate that idea (see below).
The enzymatic performance of CapF was evaluated by examining the consumption of NADPH spectrophotometrically, or by monitoring the disappearance of substrate and the formation of product by HPLC[9][12]. First, the time-dependent consumption of NADPH (monitored from a decrease of adsorption at 340 nm) was carried out in 384-well plates at a final volume of 50 μL. The solution contained 1.0 μM CapE, 0.02 μM CapF, 125 μM UDP-D-GlcNAc (substrate), 250 μM NADPH and fragment compounds at various concentrations in HBS supplemented with 0.005% (v/v) Tween-20 and 5% (v/v) DMSO. Each reaction mixture was incubated at 37 °C and the absorption at 340 nm was measured with a plate reader (PHERAstar, BMG Labtech, Durham, NC).
Figure S7. (a) Structure of compounds employed. (b-d) Time course of NADPH consumption by CapF in the presence of (b) tropolone, (c) 4-isopropyl-tropolone, and (d) 2-Cl-tropone. Increasing the concentration of compounds decreases the rate of consumption of NADPH. (e-g) Inhibition after two hours for (e) tropolone, (f) 4-isopropyl-tropolone, and (g) 2-Cl-tropone. Concentration of CapE and CapF was 1.0 µM and 0.02 µM, respectively. Concentration of NADPH and UDP-D-GlcNAc was 250 µM and 125 µM, respectively. The change of absorbance was calculated with respect to a control assay in the absence of CapF.
(1 picture or pasted object on this page, not shown here)

C=C(C)c1ccccc(=O)c1O [3-isopropenyl-tropolone]
inhibition of NADPH consumption: rate of consumption of NADPH slowed down as the concentration of inhibitor increases
inhibition of NADPH consumption (listed as 3-isopropylen-tropolone): inhibited the consumption of NADPH in a concentration-dependent basis
